Results taken from patent US20240327415A1, “Multicomponent Complexes, Including Salts, Crystalline Forms, and Hydrates and Solvates of ENT1 Inhibitors” (iTeos Belgium SA, priority 2023, published 2024).
Values belong to the compound of their own block, whether it stands above or below them.

Experiments:
Format in all cases: physicochemical
[1] = salt screen, XRPD of damp, dried and 40° C./75% RH stored samples (Salt Preparation Methods 1 and 2); set-up: key to XRPD Analysis Damp/Dry: A = amorphous; Evap. = isolated via evaporation; conditions: for XRPD Analysis Damp/Dry: (evap.); for XRPD Analysis Damp / XRPD Analysis Dry: Ethyl acetate
Procedure: (§1) Salt Preparation Method 1: Approximately 25 mg of Compound 1 (free base) was weighed out into 1.5 mL screw-cap vials and a stirrer bar was added. For solid counterions, the appropriate amount of acid (1.0 or 2.0 equiv.) was weighed into separate 1.5 mL screw-cap vials. 100 μL of the appropriate solvent system was added to both the Compound 1 and the solid counterions. Stock solutions of liquid counterions were prepared, such that 100 μL contained 1.0 or 2.0 equiv. of acid. See counterion and solvent lists in Table 60 and Table 61 respectively.
(§2) The samples were stirred at 40° C. for 5-10 min and then the acid solutions were added to Compound 1, rinsing out the transfer vial with a further 50 μL of solvent. […] Experiments were temperature cycled between 40° C. and 5° C. (1 h hold; 0.1° C./min ramp/cool) for ca. 24-68 h. Anti-solvent addition (ASA) was carried out to slurries at 5° C. then experiments were heated to 30° C. over 1 h. ASA was carried out at 30° C. or 40° C. where clear solutions or gums were observed.
(§3) Temperature cycling was then continued for ca. 16-69 h, followed by further ASA and temperature cycling if required. Material was isolated at 5° C. and analyzed damp by XRPD. All isolated material was dried under vacuum at ca. 40° C. for ca. 17-91 h then re-analyzed by XRPD. The XRPD plate was stored at 40° C./75% RH for 24-48 h and then samples re-analyzed. Solutions were stored uncapped at ambient temperature to evaporate. Any residual solids were analyzed by XRPD.
(§4) Salt Preparation Method 2: The general procedure adopted in preparing the potential salts is outlined below. A known mass of Compound 1 (free base) and a known volume of the appropriate solvent system were added to 20 mL scintillation vials. The required mol. equiv. of the appropriate counterions were added to the vials as solutions or slurries in the corresponding solvent system.
(§5) The experiments were stirred at 40° C. for ca. 1 h, and then temperature cycled between 40° C. and 5° C. with 0.1° C./min ramp and 1 h hold between each step. Anti-solvent additions and subsequent slurrying at 5° C. were employed in order to facilitate crystallization. […] The damp and dried solids were subsampled and analyzed by XRPD. Where applicable, the dried solids were stored at 40° C./75% RH for 24-48 h in order to improve the crystallinity and/or facilitate solid form conversion to the desired form.

[2] = as above; set-up: key: A = amorphous; Evap. = isolated via evaporation
Procedure: as §1, §2, §3, §4, §5

[3] = Variable Humidity X-Ray Powder Diffraction (VH-XRPD); conditions: Form 3: after extended exposure
Procedure: (§6) In the examples below, VH-XRPD analysis was carried out on a Philips X'Pert Pro Multipurpose diffractometer equipped with a humidity chamber. The samples were scanned between 4 and 36° 2θ using Cu K radiation (α1λ=1.54060 Å; α2=1.54443 Å; β=1.39225 Å; α1: α2 ratio=0.5; most, if not all, B radiation is removed from the beam using an X-ray mirror) running in Bragg-Brentano geometry (step size 0.008° 2θ) using 40 kV/40 mA generator settings. Measurements were carried out from 2-90% RH, with a final measurement taken at 40% RH.
as §6, with “VH-XRPD” for “In the examples below, VH-XRPD”, “radiation (α1 λ=1.54060” for “radiation (α1λ=1.54060”, “Å; α1:α2” for “Å; α1: α2”, “all, β” for “all, B”, “from 6-90% relative humidity (RH),” for “from 2-90% RH,”

[4] = Maleic acid, 1 equiv., IPA:H2O (75:25% v/v), AS tBME
[5] = Maleic acid, 1 equiv., Acetonitrile, AS tBME
[6] = Maleic acid, 1 equiv., Ethanol, AS Heptane
[7] = Maleic acid, 1 equiv., Ethyl acetate, AS Heptane
[8] = Maleic acid, 1 equiv., MEK, AS Heptane
[9] = Maleic acid, 1 equiv., THF, AS Heptane
[10] = Methanesulfonic acid, 2 equiv., IPA:H2O (75:25% v/v), AS tBME
[11] = Methanesulfonic acid, 2 equiv., Acetonitrile, AS tBME
[12] = Methanesulfonic acid, 2 equiv., Ethanol, AS Heptane
[13] = Methanesulfonic acid, 2 equiv., Ethyl acetate, AS Heptane
[14] = Methanesulfonic acid, 2 equiv., MEK, AS Heptane
[15] = Methanesulfonic acid, 2 equiv., THF, AS Heptane
[16] = L-Tartaric acid, 1 equiv., AS Heptane
[17] = L-Tartaric acid, 1 equiv., Acetonitrile, AS tBME
[18] = L-Tartaric acid, 1 equiv., Ethanol, AS Heptane
[19] = L-Tartaric acid, 1 equiv., IPA:H2O (75:25% v/v), AS tBME
[20] = L-Tartaric acid, 1 equiv., MEK, AS Heptane
[21] = L-Tartaric acid, 1 equiv., THF, AS Heptane
[22] = Methanesulfonic acid, 1 equiv., Ethanol, AS Heptane
[23] = Methanesulfonic acid, 1 equiv., IPA:H2O (75:25% v/v), AS tBME
[24] = Methanesulfonic acid, 1 equiv., Acetonitrile, AS tBME
[25] = Methanesulfonic acid, 1 equiv., Ethyl acetate, AS Heptane
[26] = Methanesulfonic acid, 1 equiv., MEK, AS Heptane
[27] = Methanesulfonic acid, 1 equiv., THF, AS Heptane
[28] = p-Toluenesulfonic acid, 2 equiv., IPA:H2O (75:25% v/v), AS tBME
[29] = p-Toluenesulfonic acid, 2 equiv., Acetonitrile, AS tBME
[30] = p-Toluenesulfonic acid, 2 equiv., Ethanol, AS Heptane
[31] = p-Toluenesulfonic acid, 2 equiv., Ethyl acetate, AS Heptane
[32] = p-Toluenesulfonic acid, 2 equiv., MEK, AS Heptane
[33] = p-Toluenesulfonic acid, 2 equiv., THF, AS Heptane
[34] = p-Toluenesulfonic acid, 1 equiv., Ethanol, AS Heptane
[35] = p-Toluenesulfonic acid, 1 equiv., IPA:H2O (75:25% v/v), AS tBME
[36] = p-Toluenesulfonic acid, 1 equiv., Acetonitrile, AS tBME
[37] = p-Toluenesulfonic acid, 1 equiv., Ethyl acetate, AS Heptane
[38] = p-Toluenesulfonic acid, 1 equiv., MEK, AS Heptane
[39] = p-Toluenesulfonic acid, 1 equiv., THF, AS Heptane
[40] = Citric acid, 1 equiv., AS Heptane
[41] = Citric acid, 1 equiv., Acetonitrile, AS tBME
[42] = Citric acid, 1 equiv., Ethanol, AS Heptane
[43] = Citric acid, 1 equiv., IPA:H2O (75:25% v/v), AS tBME
[44] = Citric acid, 1 equiv., MEK, AS Heptane
[45] = Citric acid, 1 equiv., THF, AS Heptane

XRPD Analysis Damp/Dry [1, 4]: A (evap.)
XRPD Analysis 40° C. 75% RH [2, 5]: A
XRPD Analysis Damp [2, 5]: A
XRPD Analysis Dry [2, 5]: A
XRPD Analysis 40° C. 75% RH [2, 6]: A
XRPD Analysis Damp [2, 6]: A
XRPD Analysis Dry [2, 6]: A
XRPD Analysis 40° C. 75% RH [2, 7]: A
XRPD Analysis Damp [2, 7]: A
XRPD Analysis Dry [2, 7]: A
XRPD Analysis 40° C. 75% RH [2, 4]: A
XRPD Analysis 40° C. 75% RH [2, 8]: A
XRPD Analysis Damp [2, 8]: A
XRPD Analysis Dry [2, 8]: A
XRPD Analysis 40° C. 75% RH [2, 9]: A
XRPD Analysis Damp [2, 9]: A
XRPD Analysis Dry [2, 9]: A
SMILES: O=C(O)/C=C\C(=O)O [Maleic acid, 1 equiv.]

XRPD Analysis Damp/Dry [1, 10]: A (evap.)
XRPD Analysis 40° C. 75% RH [2, 11]: A
XRPD Analysis Damp [2, 11]: A
XRPD Analysis Dry [2, 11]: A
XRPD Analysis 40° C. 75% RH [2, 12]: A
XRPD Analysis Damp [2, 12]: A
XRPD Analysis Dry [2, 12]: A
XRPD Analysis 40° C. 75% RH [2, 13]: A
XRPD Analysis Damp [2, 13]: A
XRPD Analysis Dry [2, 13]: A
XRPD Analysis 40° C. 75% RH [2, 10]: A
XRPD Analysis 40° C. 75% RH [2, 14]: A
XRPD Analysis Damp [2, 14]: A
XRPD Analysis Dry [2, 14]: A
XRPD Analysis 40° C. 75% RH [2, 15]: A
XRPD Analysis Damp [2, 15]: A
XRPD Analysis Dry [2, 15]: A
SMILES: CS(=O)(=O)O [Methanesulfonic acid, 2 equiv.]

XRPD Analysis Damp [1, 16]: PC, CI
XRPD Analysis Dry [1, 16]: PC, CI
XRPD Analysis 40° C. 75% RH [2, 17]: A
XRPD Analysis Damp [2, 17]: A
XRPD Analysis Dry [2, 17]: A
XRPD Analysis 40° C. 75% RH [2, 18]: A
XRPD Analysis Damp [2, 18]: A
XRPD Analysis Dry [2, 18]: A
XRPD Analysis 40° C. 75% RH ([2]; L-Tartaric acid, 1 equiv., Ethyl acetate, AS Heptane): A
XRPD Analysis 40° C. 75% RH [2, 19]: A
XRPD Analysis Damp [2, 19]: A
XRPD Analysis Dry [2, 19]: A
XRPD Analysis 40° C. 75% RH [2, 20]: A
XRPD Analysis Damp [2, 20]: A
XRPD Analysis Dry [2, 20]: A
XRPD Analysis 40° C. 75% RH [2, 21]: A
XRPD Analysis Damp [2, 21]: A
XRPD Analysis Dry [2, 21]: A
SMILES: O=C(O)C(O)C(O)C(=O)O [L-Tartaric acid, 1 equiv.]

XRPD Analysis Damp/Dry [1, 22]: A (evap.)
XRPD Analysis Damp/Dry [1, 23]: A (evap.)
XRPD Analysis 40° C. 75% RH [2, 24]: A
XRPD Analysis Damp [2, 24]: A
XRPD Analysis Dry [2, 24]: A
XRPD Analysis 40° C. 75% RH [2, 22]: A
XRPD Analysis 40° C. 75% RH [2, 25]: A
XRPD Analysis Damp [2, 25]: A
XRPD Analysis Dry [2, 25]: A
XRPD Analysis 40° C. 75% RH [2, 23]: A
XRPD Analysis 40° C. 75% RH [2, 26]: A
XRPD Analysis Damp [2, 26]: A
XRPD Analysis Dry [2, 26]: A
XRPD Analysis 40° C. 75% RH [2, 27]: A
XRPD Analysis Damp [2, 27]: A
XRPD Analysis Dry [2, 27]: A
SMILES: CS(=O)(=O)O [Methanesulfonic acid, 1 equiv.]

XRPD Analysis Damp/Dry [1, 28]: A (evap.)
XRPD Analysis 40° C. 75% RH [2, 29]: A
XRPD Analysis Damp [2, 29]: A
XRPD Analysis Dry [2, 29]: A
XRPD Analysis 40° C. 75% RH [2, 30]: A
XRPD Analysis Damp [2, 30]: A
XRPD Analysis Dry [2, 30]: A
XRPD Analysis 40° C. 75% RH [2, 31]: A
XRPD Analysis Damp [2, 31]: A
XRPD Analysis Dry [2, 31]: A
XRPD Analysis 40° C. 75% RH [2, 28]: A
XRPD Analysis 40° C. 75% RH [2, 32]: A
XRPD Analysis Damp [2, 32]: A
XRPD Analysis Dry [2, 32]: A
XRPD Analysis 40° C. 75% RH [2, 33]: A
XRPD Analysis Damp [2, 33]: A
XRPD Analysis Dry [2, 33]: A
SMILES: Cc1ccc(S(=O)(=O)O)cc1 [p-Toluenesulfonic acid, 2 equiv.]

XRPD Analysis Damp/Dry [1, 34]: A (evap.)
XRPD Analysis Damp/Dry [1, 35]: A (evap.)
XRPD Analysis 40° C. 75% RH [2, 36]: A
XRPD Analysis Damp [2, 36]: A
XRPD Analysis Dry [2, 36]: A
XRPD Analysis 40° C. 75% RH [2, 34]: A
XRPD Analysis 40° C. 75% RH [2, 37]: A
XRPD Analysis Damp [2, 37]: A
XRPD Analysis Dry [2, 37]: A
XRPD Analysis 40° C. 75% RH [2, 35]: A
XRPD Analysis 40° C. 75% RH [2, 38]: A
XRPD Analysis Damp [2, 38]: A
XRPD Analysis Dry [2, 38]: A
XRPD Analysis 40° C. 75% RH [2, 39]: A
XRPD Analysis Damp [2, 39]: A
XRPD Analysis Dry [2, 39]: A
SMILES: Cc1ccc(S(=O)(=O)O)cc1 [p-Toluenesulfonic acid, 1 equiv.]

SMILES: O=C(O)CC(O)(CC(=O)O)C(=O)O [Citric acid, 1 equiv.]
XRPD Analysis Damp [1, 40]: PC, CI
XRPD Analysis Dry [1, 40]: PC, CI
XRPD Analysis 40° C. 75% RH [2, 41]: A
XRPD Analysis Damp [2, 41]: A
XRPD Analysis Dry [2, 41]: A
XRPD Analysis 40° C. 75% RH [2, 42]: A
XRPD Analysis Damp [2, 42]: A
XRPD Analysis Dry [2, 42]: A
XRPD Analysis 40° C. 75% RH ([2]; Citric acid, 1 equiv., Ethyl acetate, AS Heptane): A
XRPD Analysis 40° C. 75% RH [2, 43]: A
XRPD Analysis Damp [2, 43]: A
XRPD Analysis Dry [2, 43]: A
XRPD Analysis 40° C. 75% RH [2, 44]: A
XRPD Analysis Damp [2, 44]: A
XRPD Analysis Dry [2, 44]: A
XRPD Analysis 40° C. 75% RH [2, 45]: A
XRPD Analysis Damp [2, 45]: A
XRPD Analysis Dry [2, 45]: A

SMILES: COc1cc(C(=O)O[C@@H]2CCCOc3cc(cc(OC)c3OC)C(=O)NCCCN3CCCN(CC2)CC3)cc(OC)c1OC.O=S(=O)(O)O.O=S(=O)(O)O [crystalline Form 5 Compound 1 di(hydrogen sulfate)]
relative humidity at which conversion to crystalline Form 2 Compound 1 di(hydrogen sulfate) trihydrate is observed [3]: ≥ 10 % RH
